Key:
[1] = Z-average diameter and polydispersity index by dynamic light scattering (Zetasizer Nano); type: physicochemical; settings: LNPs with 12.5%, 25% and 50% substitution of the named hydroxycholesterol
[2] = Stability of 100% hydroxycholesterol substitution LNPs over 28 days; settings: 100% substitution of hydroxycholesterol for cholesterol, vs S2
From the text: FIG. 8B depicts measurements of z-average diameter, PDI, mRNA concentration, and encapsulation efficiency for S2 LNPs and LNP formulations with 100% cholesterol substitution taken over 28 days to assess LNP stability. […] Error bars denote standard deviation. FIG. 8C depicts the pKa, zeta potential, z-average diameter, and PDI measurements for the exemplary LNPs of the present disclosure. n=3. Error bars denote standard deviation.
Characterization parameters assessed over the 28-day period include z-average diameter, PDI, mRNA concentration, and encapsulation efficiency (Table 3).

CC(C)CCC[C@@H](C)[C@H]1CC[C@H]2[C@@H]3[C@@H](O)C=C4C[C@@H](O)CC[C@]4(C)[C@H]3CC[C@]12C [A2, 7β-hydroxycholesterol]
PDI (in words) [1]: remained within expected ranges | z-average diameter (in words) [1]: remained within expected ranges | stability (all characterization parameters) [2]: comparable on all parameters on all days to S2

CC(C)CCC[C@](C)(O)[C@H]1CC[C@H]2[C@@H]3CC=C4C[C@@H](O)CC[C@]4(C)[C@H]3CC[C@@]21C [B1, 20 (S)-hydroxycholesterol]
PDI (in words) [1]: remained within expected ranges | z-average diameter (in words) [1]: remained within expected ranges | stability (all characterization parameters) [2]: comparable on all parameters on all days to S2

CC(C)[C@@H](O)CC[C@@H](C)[C@H]1CC[C@H]2[C@@H]3CC=C4C[C@@H](O)CC[C@]4(C)[C@H]3CC[C@]12C [B2, 24 (S)-hydroxycholesterol]
PDI (in words) [1]: more polydisperse | z-average diameter (in words) [1]: increased particle diameters

CC(C)CCC[C@@H](C)[C@H]1CC[C@H]2[C@@H]3[C@H](O)C=C4C[C@@H](O)CC[C@]4(C)[C@H]3CC[C@]12C [A1, 7α-hydroxycholesterol]
PDI (in words) [1]: remained within expected ranges | z-average diameter (in words) [1]: remained within expected ranges | stability (all characterization parameters) [2]: comparable on all parameters on all days to S2

C[C@H](CCCC(C)(C)O)[C@H]1CC[C@H]2[C@@H]3CC=C4C[C@@H](O)CC[C@]4(C)[C@H]3CC[C@]12C [B3, 25-hydroxycholesterol]
PDI (in words) [1]: more polydisperse | z-average diameter (in words) [1]: increased particle diameters

CC(C)CCC[C@@H](C)[C@H]1CC[C@H]2[C@@H]3CC=C4C[C@@H](O)CC[C@]4(CO)[C@H]3CC[C@]12C [A3, 19-hydroxycholesterol]
PDI (in words) [1]: remained within expected ranges | z-average diameter (in words) [1]: remained within expected ranges

Source: patent US20250345284A1, “LIPID NANOPARTICLE (LNP) COMPOSITIONS AND METHODS OF USE THEREOF” (The Trustees Of The University of Pennsylvania, priority 2021, published 2025)
